Structures are written as SMILES.

The test system of experiment [1] is LOXL1 regulatory elements (promoter region of the LOXL1 gene). The experiment in a line: LOXL1 promoter luciferase-reporter assay in transfected fibrosarcoma cells. It counts as cell-based, human. The settings on record: 1 μg/ml, 24 h, HTI080 cells, triplicate tests, p<0.05. An excerpt:
Vector construction, transfection and expression: The promoter region of the LOXL1 gene was isolated and cloned into the pGL3 Luciferase reporter plasmid (Promega) by standard methods known in the art and according to manufacturer's instructions. The LOXL1/pGL3 vector and the control vector pRL-NULL (Promega), containing no regulatory elements, were contransfected into the human fibrosarcoma line HTI080 using LipofectAMINE™ LTX Reagent (Invitrogen) according to manufacturer's directions.
Transfected cells were allowed to recover for 24 h. The culture medium was then replaced with fresh medium containing various concentrations of L-4 Thiazolylalanine, and the transfected cells cultured for an additional 24 h.
The cultures were subsequently washed with PBS and exposed to 100 μl cell lysis buffer/25 cm^2 culture area and gently shaken at room temperature for 30 min. The culture flasks containing the cell lysate were then immediately placed at −80° C.
The activity of the reporter gene, firefly luciferase, was determined according to the manufacturer's instructions (Dual-Luciferase® Reporter Assay System, Promega). Briefly, the activity of the reporter gene is determined relative to that of a control vector encoding a second luciferase gene, that from Renilla reniformis. […]
For orientation: A reporter such as luciferase makes a cellular process visible.

The test system of experiment [2] is calcineurin. The experiment in a line: Ex-vivo DiFMUP phosphatase assay of calcineurin activity. The experiment is classed as biochemical. As for the experimental part: Ex-vivo phosphatase assay: The modulation of calcineurin activity was monitored using a DiFMUP (6,8-difluoro-7-hydroxy-4-methylcoumarin phosphate) phosphatase assay well characterized in the art (see, e.g., Wegner et al., 2007, Methods Mol. Biol. 365:61-69, hereby incorporated by reference in its entirety). Dephosphorylation of DiFMUP leads to the formation of a highly fluorescent and stable product: […].
Varying concentrations of L-4 Thiazolylalanine were added to a reaction buffer consisting of 50 mM Tris-HCL, pH 7.4, 0.0125% BSA, 0.1 mM CaCl, 400 U/ml calmodulin and 1 mM NiCl. The L-4 Thiazolylalanine/reaction buffer mixture was incubated at 37° C. for 30 min. DiFMU substrate was then added to a concentration of 10 μM, and the mixture returned to 37° C. incubation for a further 15 min. Fluorescence intensity was determined on a Spectrofluorometer.

In experiment [3] the test system is β1 integrin. The experiment in a line: Whole cell ELISA of β1 integrin expression in human dermal fibroblasts. The experiment is classed as cell-based. The settings on record: 0.01% (w/v), 24 hours. On the procedure:
Cell culture: Human dermal fibroblasts (Cascade Biologics) were cultured in growth medium (DMEM, 5% FBS, 1% L-Glut, and 1% antibiotics) overnight in 60 mm dishes at 3.5×10^5 cells/ml. Cells were treated with test active or vehicle control diluted in growth medium and incubated for 24 hours at 37° C.
Whole cell ELISA: A B1 integrin kit from Chemicon International was used to assay the expression of B1 integrin on the cell surface following treatment with L-4 thiazolylalanine Medium was aspirated and plates were incubated at 37° C. with Cell Dissociation Buffer (provided with the kit) for 20-25 minutes, cells were centrifuged and resuspended in DMEM without supplements. 100 μl of the cell suspension was added to microtiter plates precoated with a murine anti-human β1 antibody (Chemicon International) that had been blocked for non-specific binding, and the plates incubated at 37° C. for 2 h. Adherent cells were quantitated by a cell staining kit (Chemicon International) according to manufacturer's instructions. Briefly, plates were washed in PBS and adherent cells stained by incubation for 5 min. at room temperature in the kit staining solution. […] Extraction buffer was then added to each well and the plate read at 570 nm on a spectrophotometer.
The percent change in β1 integrin expression was calculated according to the formula: […]
Background: An ELISA detects its analyte on a solid surface through an enzyme-linked reagent.

Experiment [4] relates to fibronectin. The experiment in a line: Competitive inhibition ELISA of fibronectin in conditioned media of human dermal fibroblasts. It counts as cell-based. The settings on record: 72 hours, P < 0.05. As for the experimental part: Cell culture: Human dermal fibroblasts (Cascade Biologics) were cultured in 12-well tissue culture plates in growth medium (DMEM, 5% FBS, 1% L-Glut, and 1% antibiotics) and incubated for 24 hours at 37° C. Cells treated with test active diluted in growth medium and incubated for 72 hours at 37° C., after which conditioned media was collected and assayed for the presence of fibronectin. […].
Competitive inhibition ELISA: The presence of fibronectin in the test samples was assayed by a competitive ELISA kit (Chemicon International). Briefly, test and control samples of conditioned media were incubated with a HRP-conjugated, rabbit polyclonal anti-human fibronectin antibody at room temperature for about 10 minutes. The sample/antibody mixture was then transferred to a microtiter plate precoated with a standard amount of human fibronectin that had been blocked for non-specific binding. The plate was incubated for one hour at room temperature, followed by a PBS wash and detection of bound antibody (i.e., detection of bound HRP) by routine methods known in the art. The amount of bound antibody is inversely proportional to the amount of fibronectin in the sample.
The percent change in fibronectin expression due to L-4 Thiazolylalanine treatment was calculated according to the formula: […]

The test system of experiment [5] is human skin. The experiment in a line: Human clinical patch study, histology of skin samples (Trichrome collagen and Alcian blue GAG staining). It counts as in vivo. The settings on record: 0.01% solution, topical semi-occlusive patch on outer forearm, 15 applications. On the procedure:
In order to ascertain the effect of L-4 thiazolylalanine on collagen levels in human skin in vivo, a test was conducted on about 25 women aged 35-65 years. This human clinical study was approved by an Institutional Review Board and informed consent from the subjects was obtained prior to commencement of the study. The study was conducted in accordance with Title 21 of the Code of Federal Regulations, parts 50 and 56.
A solution of 0.01% L-4 Thiazolylalanine was made up in a vehicle of Propylene glycol:Ethanol:Water at a ratio of 70:20:10. The experimental design of the test was as follows: Thiazolylalanine solution or the vehicle solution without thiazolylalanine was applied to the outer forearm on a 2×2 area of skin (@2 mg/cm2) under a semi-occlusive patch for 24 hours, after which the patch was removed and a fresh patch was applied. This was repeated for 5 days (Monday-Friday), then subjects were rested for the weekend. Patch application was continued in the same manner for the next two weeks, for a total of 15 applications. […] The intensity of the collagen and GAG staining was assessed visually under the microscope. […]

In experiment [6] the test system is CGRP. The experiment in a line: CGRP enzyme immunoassay of conditioned medium of PC-12 cells. The experiment is classed as cell-based, rat. The settings on record: 0.01%, 24 h, p<0.05. On the procedure: Cell culture: PC-12 cells were cultured in FK12 medium supplemented with nerve growth factor according to routine methods known in the art. PC12 cells are derived from a rat pheochromocytoma and terminally differentiate on exposure to nerve growth factor. Once the cells begin to differentiate, they express CGRP. Cultures were incubated in medium containing L-4 Thiazolylalanine for another 24 h. after which conditioned medium was collected and assayed for the presence of CGRP.
CGRP Immunoassay: The presence of CGRP in the test samples was assayed by a sandwich ELISA immunoassay kit. Briefly, test and control samples of conditioned media are mixed with an anti-CGRP antibody conjugated to acetylcholinesterase (the “tracer antibody”), and the mixtures added to plates pre-coated with a monoclonal anti-CGRP antibody (binding to a different epitope of CGRP than the tracer antibody) that had been blocked for non-specific binding. The samples were incubated in the plates and the plates washed and the bound acetylcholinesterase activity determined using Ellman's reagent according to routine methods known in the art. The absorbance of the reagent is directly proportional to the concentration of CGRP in the sample.
The percent change in CGRP expression due to L-4 Thiazolylalanine treatment was calculated according to the formula: […]

As to `N[C@@H](Cc1cscn1)C(=O)O` [L-4 Thiazolylalanine, L-4-thiazolylalanine], the “increase in expression of the reporter gene” value in experiment [1] came out at 57%. Further, the “increase of calcineurin activity” value in experiment [2] (0.0001% weight/volume (lowest concentration tested)) worked out at 6%. The “decrease of calcineurin activity” value stood at 11% in experiment [2] (0.001% concentration) and 63% in experiment [2] (0.01% concentration). Also, the “IC-50 (calcineurin activity), estimated” value in experiment [2] (estimated) is given as around 0.064%. Besides, in experiment [3], the “increase in the expression of B1 integrin” value worked out at 225%. In addition, the results for the “Percent Change in fibronectin expression” value in experiment [4] (Concentration 0.00001%), in experiment [4] (Concentration 0.0001%) and in experiment [4] (Concentration 0.001%) were 54.34% (P < 0.05), 31.03% (P < 0.05) and 36.11% (P < 0.05), respectively. Moreover, the “subjects with an increase in GAG staining relative to skin treated with the vehicle” value in experiment [5] (13/21 subjects) is reported as 62%. Moreover, in experiment [5] (18/21 subjects), the “subjects with increased collagen staining in treated sites versus vehicle treated site” value is 86%. Moreover, the “increase in expression of CGRP” value in experiment [6] was 69.93%.

The values are drawn from US8168212B2, “Topical compositions comprising non-proteogenic amino acids and methods of treating skin” (Avon Products, Inc, priority 2007, dated 2012).
